Assay results reported in patent publication US6399625B1, “1-oxorapamycins” (Wyeth, priority 2000, dated 2002).

Assays:
Type in all cases: cell-based
A. fumigatus GC 3092 = assay: Antifungal activity, microtiter broth dilution MIC; conditions: A. fumigatus GC 3092; RPMI 1640, 35° C., 24-48 hours
Protocol: (§1) The antifungal activity for the 1-oxorapamycins of this invention was confirmed in a standard pharmacological test procedure which measured the ability of the compound being evaluated to inhibit fungal growth. 1-Oxorapamycin (Compound I), 1-oxorapamycin 42-ester with 3-hydroxy-2-(hydroxymethyl)-2-methylpropionic acid (Compound II), and 42-O-(2-hydroxy)ethyl 1-oxorapamycin (Compound III) were evaluated as representative compounds of this invention. The procedure used and results obtained are briefly described below. A 96 U-bottom microtiter plate was filled (50 μl/well) with RPMI 1640. The compounds to be evaluated were placed in appropriate wells, and serial diluted in successive wells to provide 11 dilutions. The concentrations ranged from 64 through 0.06 μg/ml. An adjusted inoculum of fungi (50 μl) was added to each well and the plates were incubated at 35° C. for 24-48 hours. […] Nystatin and rapamycin were used for the purpose of comparison.

A. niger GC 3091 = assay: Antifungal activity, microtiter broth dilution MIC; conditions: RPMI 1640, 35° C., 24-48 hours
Protocol: as §1

A. niger GC 6591 = assay: Antifungal activity, microtiter broth dilution MIC; conditions: RPMI 1640, 35° C., 24-48 hours
Protocol: as §1

C. albicans GC 3064 = assay: Antifungal activity, microtiter broth dilution MIC; conditions: RPMI 1640, 35° C., 24-48 hours
Protocol: as §1

C. albicans GC 3065 = assay: Antifungal activity, microtiter broth dilution MIC; conditions: RPMI 1640, 35° C., 24-48 hours
Protocol: as §1

C. albicans GC 3066 = assay: Antifungal activity, microtiter broth dilution MIC; conditions: RPMI 1640, 35° C., 24-48 hours
Protocol: as §1

C. krussii GC 3067 = assay: Antifungal activity, microtiter broth dilution MIC; conditions: RPMI 1640, 35° C., 24-48 hours
Protocol: as §1

C. lusitaniae GC 3068 = assay: Antifungal activity, microtiter broth dilution MIC; conditions: RPMI 1640, 35° C., 24-48 hours
Protocol: as §1

C. parapsilosis GC 3074 = assay: Antifungal activity, microtiter broth dilution MIC; conditions: RPMI 1640, 35° C., 24-48 hours
Protocol: as §1

C. parapsilosis GC 3075 = assay: Antifungal activity, microtiter broth dilution MIC; conditions: RPMI 1640, 35° C., 24-48 hours
Protocol: as §1

C. parapsilosis GC 3076 = assay: Antifungal activity, microtiter broth dilution MIC; conditions: RPMI 1640, 35° C., 24-48 hours
Protocol: as §1

C. pseudotropicalis 3070 = assay: Antifungal activity, microtiter broth dilution MIC; conditions: RPMI 1640, 35° C., 24-48 hours
Protocol: as §1

C. tropicalis GC 3080 = assay: Antifungal activity, microtiter broth dilution MIC; conditions: RPMI 1640, 35° C., 24-48 hours
Protocol: as §1

C. tropicalis GC 3081 = assay: Antifungal activity, microtiter broth dilution MIC; conditions: RPMI 1640, 35° C., 24-48 hours
Protocol: as §1

[1] = test system: A431 (vulva epidermoid origin) tumor cell line; assay: Antineoplastic activity, tumor cell growth inhibition (sulforhodamine B); conditions: A431 cells, 48 hours
Description: (§2) Antineoplastic activity for the compounds of this invention was confirmed by evaluating the antineoplastic activity of representative compounds of this invention (Compounds I-III) against six tumor cell lines in vitro. Briefly, tumor cells from six cell lines were placed in wells of a 96 well microtiter plate. The following tumor cell lines were used: 3T3 (ovarian), 3T3/H2N (ovarian—resistant to cis-platin), A431 (vulva epidermoid origin), SW620 (colon), SKBR3 (breast), and MDA-435 (breast). The tumors cells were grown in the presence of serial dilutions of the compound to be evaluated for 48 hours, and cell growth determined using a colorimetric procedure (sulforhrodamine B). The inhibition of growth was calculated compared to the number of cells at the time of test compound addition. Results are expressed as an IC50 (μg/ml); N/A indicates the compound was not evaluated against that cell line. The following IC50s was listed on Table 2.

[2] = test system: SKBR3 (breast) tumor cell line; assay: as above; conditions: SKBR3 cells, 48 hours
Description: as §2

[3] = test system: SW620 (colon) tumor cell line; assay: as above; conditions: SW620 cells, 48 hours
Description: as §2

[4] = test system: 3T3 (ovarian) tumor cell line; assay: as above; conditions: 3T3 cells, 48 hours
Description: as §2

[5] = test system: 3T3/H2N (ovarian—resistant to cis-platin) tumor cell line; assay: as above; conditions: 3T3/H2N cells, 48 hours
Description: as §2

[6] = test system: MDA-435 (breast) tumor cell line; assay: as above; conditions: MDA435 cells, 48 hours
Description: as §2

[7] = C. lusitaniae GC 3068, first listing (r26)

| Compound | ANTIFUNGAL ACTIVITY (MIC) (A. fumigatus GC 3092) | ANTIFUNGAL ACTIVITY (MIC) (A. niger GC 3091) | ANTIFUNGAL ACTIVITY (MIC) (A. niger GC 6591) | ANTIFUNGAL ACTIVITY (MIC) (C. albicans GC 3064) | ANTIFUNGAL ACTIVITY (MIC) (C. albicans GC 3065) | ANTIFUNGAL ACTIVITY (MIC) (C. albicans GC 3066) | ANTIFUNGAL ACTIVITY (MIC) (C. krussii GC 3067) | ANTIFUNGAL ACTIVITY (MIC) (C. lusitaniae GC 3068; [7]) | ANTIFUNGAL ACTIVITY (MIC) (C. parapsilosis GC 3074) | ANTIFUNGAL ACTIVITY (MIC) (C. parapsilosis GC 3075) | ANTIFUNGAL ACTIVITY (MIC) (C. parapsilosis GC 3076) | ANTIFUNGAL ACTIVITY (MIC) (C. pseudotropicalis 3070) | ANTIFUNGAL ACTIVITY (MIC) (C. tropicalis GC 3080) | ANTIFUNGAL ACTIVITY (MIC) (C. tropicalis GC 3081) | Antineoplastic Activity (IC50) [1] | Antineoplastic Activity (IC50) [2] | Antineoplastic Activity (IC50) [3] | other results |
| --- | --- | --- | --- | --- | --- | --- | --- | --- | --- | --- | --- | --- | --- | --- | --- | --- | --- | --- |
| CO[C@H]1CC2CC[C@@H](C)[C@@](O)(O2)C(=O)C(=O)N2CCCC[C@H]2C(=O)O[C@H]([C@H](C)CC2CC[C@@H](OCCO)[C@H](OC)C2)CC(=O)[C@H](C)/C=C(\C)[C@@H](O)[C@@H](OC)C(=O)[C@H](C)C[C@H](C)C(=O)C/C=C/C=C/1C (some centres unmarked) [Compound III, 42-O-(2-Hydroxy)ethyl 1-oxorapamycin] | 2 µg/mL | >32 µg/mL | >32 µg/mL | 4 µg/mL | 2 µg/mL | 2 µg/mL | >32 µg/mL | 2 µg/mL | 2 µg/mL | 2 µg/mL | 2 µg/mL | 2 µg/mL | 2 µg/mL | 2 µg/mL | 0.48 µg/mL | 0.038 µg/mL | 1.9 µg/mL | – |
| CO[C@H]1CC2CC[C@@H](C)[C@@](O)(O2)C(=O)C(=O)N2CCCC[C@H]2C(=O)O[C@H]([C@H](C)CC2CC[C@@H](OC(=O)C(C)(CO)CO)[C@H](OC)C2)CC(=O)[C@H](C)/C=C(\C)[C@@H](O)[C@@H](OC)C(=O)[C@H](C)C[C@H](C)C(=O)C/C=C/C=C/1C (some centres unmarked) [Compound II, 1-Oxorapamycin 42-ester with 3-Hydroxy-2-(hydroxymethyl)-2-methylpropionic acid] | 64 µg/mL | 32 µg/mL | 64 µg/mL | 8 µg/mL | 2 µg/mL | 2 µg/mL | 16 µg/mL | 1 µg/mL | 2 µg/mL | 2 µg/mL | 1 µg/mL | 0.50 µg/mL | 1 µg/mL | 0.50 µg/mL | 5.5 µg/mL | 1.7 µg/mL | 8.7 µg/mL | ANTIFUNGAL ACTIVITY (MIC) (C. lusitaniae GC 3068; C. lusitaniae GC 3068, second listing (r28)): 1 µg/mL; Antineoplastic Activity (IC50) [4]: 0.84 µg/mL; Antineoplastic Activity (IC50) [5]: 3.0 µg/mL; Antineoplastic Activity (IC50) [6]: 2.8 µg/mL |
